The values that follow come from patent US20170151299A1, “EXTRACTS OF SANTOLINA CHAMAECYPARISSUS” (priority 2014, published 2017).

The subject of one data set is Candida albicans. Description: 96-well microtiter plate growth inhibition assay. Type of data set: cell-based. The note with it: for inhibition: 200 mg/mL sample at 2% in well (positive standard 0.4%). Here is the method: (§1) Antimicrobial activity of the crude extracts was determined using a 96-well microtiter plate assay based on growth inhibition. The assay was performed on […] different microbial strains, chosen according to the European Pharmacopoeia (ATCC references): Staphylococcus aureus ([…]), Escherichia coli (gram-negative bacteria), Pseudomonas aeruginosa ([…]), Propionibacterium acnes (anaerobic gram-positive bacteria), Aspergillus niger (fungus) and Candida albicans (yeast).
(§2) Samples for antimicrobial assay were prepared as follows: crude extracts were diluted at 200 mg/mL in a mixture of appropriate solvents, e.g. ethanol and water (60:40 v/v) or pure dimethylsulfoxide. After solubilization, the solutions were filtrated on 0.45 μm syringe filters.
(§3) The assay was performed for each strain according as follows: samples (at 200 mg/mL) were first diluted to 4% in water, then to 2% and 0.2% in wells. Final concentrations were also 0.4 and 0.04% of crude extracts in wells. Each concentration was assessed in replicate with one supplementary control well containing no microbial strain. For the assay at 2%, samples were mixed up in the wells with growth medium (95 μL) and microbial suspension (representing an absorbance of 0.6 for C. albicans, S. aureus and P. aeruginosa and 40 spores/μL for A. niger). For the assay at 0.2%, samples were first diluted to 0.2% with water in the wells. Negative controls constituted of the solvent mixture used to prepare the sample solutions, and positive controls with a synthetic preservative (methyl-paraben and/or phenoxyethanol, positive standard) were also prepared. Results were also compared with those obtained using a commercial natural preservative (commercial preservative). The 96-well plates were incubated at 25° C.
(§4) The absorbance was read for each plate at 620 nm 24, 48 and 72 hours after the beginning of the incubation to evaluate the growth of each microorganism in presence of crude extracts.
(§5) The results were expressed as a percentage of growth inhibition by the samples for each microorganism.

Another data set deals with Staphylococcus aureus. Description: 96-well microtiter plate growth inhibition assay. Conditions: for inhibition at 200000 µg/mL (stock): 200 mg/mL sample at 2% in well (positive standard 0.4%). It is filed as cell-based. Here is the method: as §1, §2, §3, §4, §5
The next data set has as its system Aspergillus niger. The experiment in a line: 96-well microtiter plate growth inhibition assay. It is filed as cell-based. The note with it: for inhibition at 200000 µg/mL (stock): 200 mg/mL sample at 2% in well (positive standard 0.4%). Here is the method:
as §1, §2, §3, §4, §5

In the next data set the test system is Pseudomonas aeruginosa. Description: 96-well microtiter plate growth inhibition assay. Type of data set: cell-based. The note with it: for inhibition: 200 mg/mL sample at 2% in well (positive standard 0.4%). Here is the method:
as §1, §2, §3, §4, §5

The test system of the next data set is Propionibacterium acnes. Description: Minimum inhibitory concentration (MIC). Type of data set: cell-based. The note with it: Cutibacterium acnes; Propionibacterium acnes (anaerobic); read-out: MIC (mg/mL) P. acnes. Here is the method:
In a second step for the optimized extract of S. chamaecyparissus, the minimum inhibitory concentration (MIC) and the minimum bactericidal concentration (MBC) were also measured including E. coli and P. acnes. […] The MBC is the lowest concentration of antibacterial agent required to kill a particular bacterium, that is to say to reduce the viability of the initial bacterial inoculum by >99.9%. The dilutions were run in triplicate for the MIC and MBC test. At the end of the incubation, the tubes were read for the growth inhibition and then the MBC was determined by sampling all the macroscopically clear tubes and the first turbid tube in the series.
The results were expressed in mg/mL of extract.
The optimized extract was then assessed for its antimicrobial activity and more particularly in order to determine the minimum inhibitory concentration for Propionibacterium acnes (gram-positive bacteria). Methyl paraben and phenoxyethanol, as universal antimicrobial agents, were used as positive control. Due to the a higher active substance (I) content, the impact on the antimicrobial activity and more particularly on an anaerobic bacteria was evaluated.

The format of data set [1] is physicochemical. Here is the method:
The pure compound appeared to be unstable once isolated, and particularly in aqueous and acid conditions. Since antimicrobial assays were performed in water, its antimicrobial activity could not be evaluated as for crude extracts or plant fractions. Thus, the inventors tried to establish a relationship between antimicrobial activity and active substance content in crude extracts.

Where [2] appears, read: 24 h, read-out: Growth inhibition (%) 24 h, 2%.
The mark [3] stands for this setting: 48 h, read-out: Growth inhibition (%) 48 h, 2%.
[4] abbreviates: medium inhibition at 2%, Table 2.
Setting [5] is: 72 h, read-out: Growth inhibition (%) 72 h, 2%.

The structures appear in SMILES notation. In brackets after ≈: the same amount, converted by molar mass. Like-named read-outs stand apart in the source and are kept apart here.

As to `COC(=O)c1ccc(O)cc1` [Positive standard, Methylparaben], the inhibition (usually the percentage by which the read-out fell short of the control) with Candida albicans (setting [2]) is 99%; with Candida albicans (setting [3]) it was 100%; in the data set on Pseudomonas aeruginosa (setting [3]), 75%; in the data set with Pseudomonas aeruginosa (setting [5]), 81%. Further, the Review result in the data set with Candida albicans (setting [4]) was “+++ (medium inhibition greater or equal to 90%)”; with Staphylococcus aureus (setting [4]), “++ (medium inhibition comprised between 70% and 90%)”; with Aspergillus niger (setting [4]) it was “+++ (medium inhibition greater or equal to 90%)”; in the data set with Pseudomonas aeruginosa (setting [4]), “++ (medium inhibition comprised between 70% and 90%)”. The inhibition at 200000 µg/mL (stock) in the data set with Staphylococcus aureus (setting [2]) is 80%; with Staphylococcus aureus (setting [3]) it was 93%; in the data set on Aspergillus niger (setting [3]), 100%; with Aspergillus niger (setting [5]) it was 100%. In addition, the MIC with Propionibacterium acnes was 2.53 mg/mL (≈ 16.6 mM).

Turning to `CC#CC#C/C=C1/C=CC2(OC=CC2OC(C)=O)O1` (centres unmarked) [pure compound, 1,6-dioxaspiro[4,4]nona-2,8-dien-4-ol,7-(2,4-hexadiyn-1-ylidene)-,4-acetate], in data set [1], the stability once isolated result was “unstable”.
